Several values for one entry are separate records, joined by “and”; a condition that tells them apart may be missing. Identical values can stand only once.
Legend:
Tca-Pgp-11.1 = molecular target: T1, Tca-Pgp-11.1 (Toxocara canis, UniProt A0A891XKB7); assay: H33342 efflux inhibition assay; format: cell-based
T1 sequence (A0A891XKB7 1-1282): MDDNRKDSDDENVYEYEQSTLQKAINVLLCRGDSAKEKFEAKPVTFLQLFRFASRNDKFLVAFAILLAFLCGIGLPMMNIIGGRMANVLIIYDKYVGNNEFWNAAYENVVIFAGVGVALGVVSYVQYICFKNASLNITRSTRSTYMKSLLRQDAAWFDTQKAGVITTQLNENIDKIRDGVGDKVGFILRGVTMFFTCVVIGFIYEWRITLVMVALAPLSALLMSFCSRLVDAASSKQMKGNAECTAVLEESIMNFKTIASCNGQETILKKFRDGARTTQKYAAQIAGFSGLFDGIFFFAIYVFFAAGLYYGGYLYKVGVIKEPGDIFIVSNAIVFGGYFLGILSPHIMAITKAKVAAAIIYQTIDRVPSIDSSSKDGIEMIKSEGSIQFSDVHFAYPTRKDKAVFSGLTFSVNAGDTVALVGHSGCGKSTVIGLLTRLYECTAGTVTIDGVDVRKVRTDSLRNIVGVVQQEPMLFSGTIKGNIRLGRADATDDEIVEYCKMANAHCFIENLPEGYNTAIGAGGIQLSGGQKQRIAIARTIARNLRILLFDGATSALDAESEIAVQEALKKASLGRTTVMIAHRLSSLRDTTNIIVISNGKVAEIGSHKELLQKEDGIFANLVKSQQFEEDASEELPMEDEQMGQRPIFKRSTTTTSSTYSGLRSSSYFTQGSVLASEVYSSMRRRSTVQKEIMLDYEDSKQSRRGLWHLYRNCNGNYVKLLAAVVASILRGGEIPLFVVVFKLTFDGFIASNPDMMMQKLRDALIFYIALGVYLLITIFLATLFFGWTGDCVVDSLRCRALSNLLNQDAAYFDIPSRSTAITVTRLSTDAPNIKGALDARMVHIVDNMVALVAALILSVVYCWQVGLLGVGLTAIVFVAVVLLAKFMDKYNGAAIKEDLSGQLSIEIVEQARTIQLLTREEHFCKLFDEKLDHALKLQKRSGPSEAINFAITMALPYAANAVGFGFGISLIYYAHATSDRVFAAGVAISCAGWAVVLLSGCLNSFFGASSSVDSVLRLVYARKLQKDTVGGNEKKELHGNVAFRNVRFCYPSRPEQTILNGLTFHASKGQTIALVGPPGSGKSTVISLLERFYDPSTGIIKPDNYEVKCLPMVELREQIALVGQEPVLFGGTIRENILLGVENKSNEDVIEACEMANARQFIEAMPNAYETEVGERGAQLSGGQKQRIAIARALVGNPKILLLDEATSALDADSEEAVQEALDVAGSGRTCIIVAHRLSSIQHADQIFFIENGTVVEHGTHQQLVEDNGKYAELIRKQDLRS

[1] = system: non-transfected LLC-PK1 cells; format: cell-based, pig; details: possibly P-gp-independent mechanism

Row | SMILES | IC50 (Tca-Pgp-11.1) | Effect on release of H33342 from non-transfected cells [1]
1 | CO[C@H]1C[C@H](O[C@@H]2/C(C)=C/C[C@@H]3C[C@@H](C[C@]4(CC[C@H](C)[C@@H](C5CCCCC5)O4)O3)OC(=O)[C@@H]3C=C(C)/C(=N/O)[C@H]4OC/C(=C\C=C\[C@@H]2C)[C@]43O)O[C@@H](C)[C@@H]1O [Selamectin, selamectin] | 1020 µM | 
2 | COc1cc2c(cc1OC)CN(CCc1ccc(NC(=O)c3cc(OC)c(OC)cc3NC(=O)c3cnc4ccccc4c3)cc1)CC2 [Tariquidar, tariquidar] | 68 µM and 68.5 µM | 
3 | C/C=C/C[C@@H](C)C(=O)[C@H]1C(=O)N[C@@H](C(C)C)C(=O)N(C)CC(=O)N(C)[C@@H](CC(C)C)C(=O)N[C@@H](C(C)C)C(=O)N(C)[C@@H](CC(C)C)C(=O)N[C@@H](C)C(=O)N[C@H](C)C(=O)N(C)[C@@H](CC(C)C)C(=O)N(C)[C@@H](CC(C)C)C(=O)N(C)[C@@H](C(C)C)C(=O)N1C [Valspodar, valspodar] | 3.01 µM | 
4 | COC(=O)[C@H]1[C@H]2C[C@@H]3c4[nH]c5cc(OC)ccc5c4CCN3C[C@H]2C[C@@H](OC(=O)c2cc(OC)c(OC)c(OC)c2)[C@@H]1OC [reserpine] |  | enhanced release of H33342 from non-transfected cells
5 | C=CC[C@@H]1/C=C(\C)C[C@H](C)C[C@H](OC)[C@H]2O[C@@](O)(C(=O)C(=O)N3CCCC[C@H]3C(=O)O[C@H](/C(C)=C/[C@@H]3CC[C@@H](O)[C@H](OC)C3)[C@H](C)[C@@H](O)CC1=O)[C@H](C)C[C@@H]2OC [tacrolimus] |  | enhanced release of H33342 from non-transfected cells
